Activity calls are given as the source filed them. The rule behind the calls is not given here.
Legend:
Candida albicans [1] = test: Antifungal activity against Candida albicans SC5314 assessed as inhibition of fungal transformation from budded-to-hyphal-form at 4 uM after 24 hrs by microscopy; format: functional, organism-based
Candida albicans [2] = test: Antifungal activity against Candida albicans SC5314 assessed as inhibition of fungal transformation from budded-to-hyphal-form at 2 uM after 24 hrs by microscopy; format: functional, organism-based
Candida albicans [3] = test: Antifungal activity against Candida albicans SC5314 assessed as inhibition of fungal transformation from budded-to-hyphal-form at 1 uM after 24 hrs by microscopy; format: functional, organism-based
Candida albicans [4] = test: Antifungal activity against Candida albicans K2 at 6.3 uM after 16 hrs by BacTiter-Glow assay; format: functional, organism-based
Candida albicans [5] = test: Antifungal activity against Candida albicans SC5314 at 6.3 uM after 16 hrs by BacTiter-Glow assay; format: functional, organism-based
Candida albicans [6] = test: Antifungal activity against Candida albicans CBS 5983 at 6.3 uM after 16 hrs by BacTiter-Glow assay; format: functional, organism-based
Candida albicans [7] = test: Antifungal activity against Candida albicans clinical isolates at 6.3 uM after 16 hrs by BacTiter-Glow assay; format: functional, organism-based
Candida albicans [8] = test: Antifungal activity against Candida albicans K2 at 32 uM after 16 hrs by BacTiter-Glow assay; format: functional, organism-based
Candida albicans [9] = test: Antifungal activity against Candida albicans SC5314 at 32 uM after 16 hrs by BacTiter-Glow assay; format: functional, organism-based
Candida albicans [10] = test: Antifungal activity against Candida albicans CBS 5983 at 32 uM after 16 hrs by BacTiter-Glow assay; format: functional, organism-based
Candida albicans [11] = test: Antifungal activity against Candida albicans clinical isolates at 32 uM after 16 hrs by BacTiter-Glow assay; format: functional, organism-based
Candida albicans [12] = test: Antifungal activity against Candida albicans K2 at 4.3 uM after 16 hrs by BacTiter-Glow assay relative to untreated control; format: functional; conditions: pooled result: one value given for 4 cell lines, strains, targets or settings
Candida albicans [13] = test: Antifungal activity against Candida albicans K2 at 4.15 uM after 16 hrs by BacTiter-Glow assay relative to untreated control; format: functional
Candida albicans [14] = test: Antifungal activity against Candida albicans SC5314 at 4.15 uM after 16 hrs by BacTiter-Glow assay relative to untreated control; format: functional
Candida albicans [15] = test: Antifungal activity against Candida albicans CBS 5983 at 4.15 uM after 16 hrs by BacTiter-Glow assay relative to untreated control; format: functional
Candida albicans [16] = test: Antifungal activity against Candida albicans clinical isolates at 4.15 uM after 16 hrs by BacTiter-Glow assay relative to untreated control; format: functional
Candida albicans [17] = test: Antifungal activity against Candida albicans K2 at 4.1 uM after 16 hrs by BacTiter-Glow assay; format: functional, organism-based
Candida albicans [18] = test: Antifungal activity against Candida albicans SC5314 at 4.1 uM after 16 hrs by BacTiter-Glow assay; format: functional, organism-based
Candida albicans [19] = test: Antifungal activity against Candida albicans CBS 5983 at 4.1 uM after 16 hrs by BacTiter-Glow assay; format: functional, organism-based
Candida albicans [20] = test: Antifungal activity against Candida albicans clinical isolates at 4.1 uM after 16 hrs by BacTiter-Glow assay; format: functional, organism-based
Candida albicans [21] = test: Antifungal activity against Candida albicans K2 at 4 uM after 16 hrs by BacTiter-Glow assay; format: functional, organism-based
Candida albicans [22] = test: Antifungal activity against Candida albicans SC5314 at 4 uM after 16 hrs by BacTiter-Glow assay; format: functional, organism-based
Candida albicans [23] = test: Antifungal activity against Candida albicans CBS 5983 at 4 uM after 16 hrs by BacTiter-Glow assay; format: functional, organism-based
Candida albicans [24] = test: Antifungal activity against Candida albicans clinical isolates at 4 uM after 16 hrs by BacTiter-Glow assay; format: functional, organism-based
Candida albicans [25] = test: Antifungal activity against Candida albicans K2 at 24.3 uM after 16 hrs by BacTiter-Glow assay; format: functional, organism-based
Candida albicans [26] = test: Antifungal activity against Candida albicans SC5314 at 24.3 uM after 16 hrs by BacTiter-Glow assay; format: functional, organism-based
Candida albicans [27] = test: Antifungal activity against Candida albicans CBS 5983 at 24.3 uM after 16 hrs by BacTiter-Glow assay; format: functional, organism-based
Candida albicans [28] = test: Antifungal activity against Candida albicans clinical isolates at 24.3 uM after 16 hrs by BacTiter-Glow assay; format: functional, organism-based

Molecule: CC[C@H](C)[C@H](NC(=O)[C@H](C)NC(=O)CNC(=O)[C@H](C)NC(=O)[C@H](CCC(=O)O)NC(=O)[C@H](CCCCN)NC(=O)[C@H](CC(C)C)NC(=O)[C@H](Cc1cnc[nH]1)NC(=O)[C@H](CC(C)C)NC(=O)[C@H](Cc1ccccc1)NC(=O)[C@H](CO)NC(=O)[C@H](CC(C)C)NC(=O)[C@H](Cc1ccccc1)NC(=O)[C@H](CCC(=O)O)NC(=O)[C@@H](NC(=O)[C@@H](NC(=O)[C@@H](NC(=O)[C@H](CCCNC(=N)N)NC(=O)[C@H](CCSC)NC(=O)[C@@H](NC(=O)[C@H](CC(N)=O)NC(=O)[C@H](CC(N)=O)NC(=O)[C@H](CCC(=O)O)NC(=O)[C@@H]1CCCN1C(=O)[C@@H](NC(=O)[C@H](CO)NC(=O)[C@H](CCCNC(=N)N)NC(=O)[C@H](CC(=O)O)NC(=O)[C@H](Cc1ccccc1)NC(=O)[C@H](CO)NC(=O)CNC(=O)[C@@H]1CCCN1C(=O)[C@H](CCCCN)NC(=O)[C@H](CCSC)NC(=O)[C@H](CC(=O)O)NC(=O)[C@H](CC(=O)O)NC(=O)[C@H](CCC(=O)O)NC(=O)[C@@H]1CCCN1C(=O)[C@H](CCCNC(=N)N)NC(=O)[C@H](CC(C)C)NC(=O)[C@@H](N)CCC(=O)O)[C@@H](C)CC)[C@@H](C)CC)[C@H](C)O)[C@@H](C)CC)[C@@H](C)CC)C(=O)O
- Activity (Candida albicans [1]): Active
- Activity (Candida albicans [2]): Active
- Activity (Candida albicans [3]): inactive

Molecule: CC[C@H](C)[C@H](NC(=O)[C@H](C)NC(=O)[C@H](Cc1c[nH]cn1)NC(=O)[C@@H]1CCCN1C(=O)CNC(=O)[C@H](CC(C)C)NC(=O)[C@H](CC(C)C)NC(=O)[C@H](Cc1ccc(O)cc1)NC(=O)CNC(=O)[C@H](C)NC(=O)[C@H](CO)NC(=O)[C@H](CC(N)=O)NC(=O)[C@H](CC(C)C)NC(=O)[C@@H](NC(=O)[C@H](Cc1c[nH]c2ccccc12)NC(=O)CN)[C@@H](C)O)C(=O)N[C@@H](CC(=O)O)C(=O)N[C@@H](CC(N)=O)C(=O)N[C@@H](Cc1c[nH]cn1)C(=O)N[C@@H](CCCNC(=N)N)C(=O)N[C@@H](CO)C(=O)N[C@@H](Cc1ccccc1)C(=O)N[C@@H](Cc1c[nH]cn1)C(=O)N[C@@H](CC(=O)O)C(=O)N[C@@H](CCCCN)C(=O)N[C@@H](Cc1ccc(O)cc1)C(=O)NCC(=O)N[C@@H](CC(C)C)C(=O)N[C@@H](C)C(N)=O
- Activity (Candida albicans [4]): inactive
- Activity (Candida albicans [5]): inactive
- Activity (Candida albicans [6]): inactive
- Activity (Candida albicans [7]): inactive

Molecule: OC(Cn1cncn1)(Cn1cncn1)c1ccc(F)cc1F
- Activity (Candida albicans [8]): Active
- Activity (Candida albicans [9]): Active
- Activity (Candida albicans [10]): Active
- Activity (Candida albicans [11]): Active

Molecule: H-ELRPEDDMKPGSFDRSIPENNIMRTIIEFLSFLHLKEAGAL-OH
- Activity (Candida albicans [12]): 48.7%

Molecule: H-GIGKFLHSAGKFGKAFVGEIMKS-OH [MAGAININ I]
- Activity (Candida albicans [13]): >90%
- Activity (Candida albicans [14]): >90%
- Activity (Candida albicans [15]): >90%
- Activity (Candida albicans [16]): >90%

Molecule: H-LQSEDKAIRTIMEFLAFLHLKEAGAL-OH
- Activity (Candida albicans [17]): Active
- Activity (Candida albicans [18]): Active
- Activity (Candida albicans [19]): Active
- Activity (Candida albicans [20]): Active
- Activity (Candida albicans [21]): Active
- Activity (Candida albicans [22]): Active
- Activity (Candida albicans [23]): Active
- Activity (Candida albicans [24]): Active
- Activity (Candida albicans [1]): Active

Molecule: H-PENNIMRTIIEFLSFLHLKEAGAL-OH
- Activity (Candida albicans [25]): inactive
- Activity (Candida albicans [26]): inactive
- Activity (Candida albicans [27]): inactive
- Activity (Candida albicans [28]): inactive

Molecule: H-SIPENNIMRTIIEFLSFLHLKEAGAL-OH
- Activity (Candida albicans [17]): Active
- Activity (Candida albicans [18]): Active
- Activity (Candida albicans [19]): Active
- Activity (Candida albicans [20]): Active
- Activity (Candida albicans [21]): Active
- Activity (Candida albicans [22]): Active
- Activity (Candida albicans [23]): Active
- Activity (Candida albicans [24]): Active
- Activity (Candida albicans [1]): Active
- Activity (Candida albicans [2]): Active
- Activity (Candida albicans [3]): inactive
